In US20260008801A1, “BIO-BASED SURFACTANTS DERIVED FROM CARBOHYDRATES” (COÖPERATIE KONINKLIJKE COSUN U.A., priority 2022, published 2026):
Read-outs that look alike come from different tables or passages of the source.

How the values were obtained:
Type in all cases: physicochemical
[1] = Solubility in water (excess of compound in 4 ml demi water); conditions: for Solubility: Table E5.2, water; for Solubility (%): Table E8
Description: Solubility is preferably solubility in aqueous solution, more preferably solubility in water, most preferably solubility in demineralised water. A skilled person knows how to assess such solubility.
Solubility in water was determined by preparing mixtures of an excess of compound dispersed in 4 ml demi water using a vortex at maximum speed for 1 min. […] 1 ml of the mixture was concentrated in vacuo to yield a solid. The mass of the solid was determined in mg to calculate the solubility in percentage by dividing by ten.

[2] = Solubility in media other than water (methanol, ethyl acetate, oils, 3:1 EtOH/H2O); conditions: for SOLUBILITY (H2O): medium named in the cell instead of water: Table E1, cell names the medium in which the compound is soluble
[3] = Foaming abilities, 1% compound solutions shaken by hand; set-up: key to FOAM: −: no foam formation; +: low foam formation; ++: moderate foam formation; +++: strong foam formation
Description: Foaming abilities were evaluated at room temperature by shaking 1% compound solutions (2 ml) of pH 3, 7, and 12 by hand for 10 s. The pH of each solution was assessed with a pH meter at room temperature. […] The foam heights at the initial time were compared to one another after which the foaming abilities were classified according to no foam formation (−), low foam formation (+), moderate foam formation (++), and strong foam formation (+++).

[4] = Surface tension measurements, Wilhelmy plate (surface tension, CMC)
Description: Surface tension measurements were performed with a Biolin Scientific Sigma701 automatic tension meter equipped with a Wilhelmy plate made of platinum (±0.5 mN/m). […] The number of experimental points is related to the compound's/surfactant's solubility and available quantity. All compound/surfactant solutions were allowed to stand 12 h before being measured. The platinum plate was thoroughly cleaned with demi water and flame-dried before each measurement. The CMC of each compound/surfactant was determined at the minimum of a breakpoint of a conventional plot of surface tension versus compound/surfactant concentration. DCMC was obtained by acquiring the surface tension at the CMC. The pC20 value was determined by taking the minus log of the concentration compound/surfactant at a surface tension of 52 mN/m.

[5] = Foaming power and stability, Ultra-Turrax, 0.4% aq. surfactant; conditions: for Foamability (mL) after (min) 1 / Foamability (mL) after (min) 5 / Foamability (mL) after (min) 10: Table E5.2; for Foamability (mL) after (min) 1: foam volume after 1 min; for Foamability (mL) after (min) 5: foam volume after 5 min; for Foamability (mL) after (min) 10: foam volume after 10 min; for Foamability 1 min / Foamability 5 min / Foamability 30 min: Table E8; for Foamability 1 min: after 1 min; for Foamability 5 min: after 5 min; for Foamability 30 min: after 30 min
Description: Foaming power was also tested at room temperature with 5 mL of 0.4% aq. surfactant (20 mg) solution in a 50 mL measuring cylinder. After performing the Ultra-Turrax (a registered trademark for a high-performance dispersing instrument) for 20 seconds (8000 rpm), the initial height of the foam was measured for foam height. (volume in mL). Every time step of, 1, 3, 5, 10, 30, 60 minutes was noted. In addition, after 24 hours the stability was checked. Particularly, foaming power and stability of the surfactants were performed using an IKA Ultra-Turrax T25 with an 18 G dispersing element. At room temperature, an aqueous solution of 5 mL 0.4% surfactant in a 50 mL measuring cylinder (2.20 cm diameter) was mixed with the Ultra-Turrax for 20 seconds at 8000 rpm. The foam height (volume in mL) was denoted for 0, 1, 3, 5, 10, 30, 60 min and 24 hours. In addition, after 24 hours the stability was checked.

[6] = Table E3, N-alkylated compounds
[7] = Table E5, room temperature, pH 7
[8] = Table E6, N-oxide compounds, in Salt form

Structure (SMILES)	solubility in water, in words [1]	SOLUBILITY (H2O) [1, 8] [%]	Solubility (%) [1] [%]	FOAM ([3]; Table E6, in Salt form)	CMC (%) ([4]; Table E6, in Salt form)	SURFACE TENSION ([4]; Table E6, in Salt form) [mN/m]	CMC (%) ([4]; Table E8)	Surface tension (nM/m) ([4]; Table E8) [mN/m]	Foamability 1 min [5] [mL]	Foamability 5 min [5] [mL]	Foamability 30 min [5] [mL]	further results
CCCCCCCCNC(=O)[C@H](O)[C@@H](O)[C@@H](O)CO [Compound 03, 1-(N-octyl)-L-arabinonamide]	poorly soluble											Solubility in 3:1 EtOH/H2O ([2]; 3:1 ethanol water ratio): soluble; SOLUBILITY (H2O): medium named in the cell instead of water ([2]; in 3:1 ethanol/water): 3:1 EtOH/H2O &; SOLUBILITY (H2O): medium named in the cell instead of water ([2]; in oil): in oil; solubility in diverse oils, in words [2]: soluble; FOAM ([3]; Table E1): −
CCCCCCCCCCNC(=O)[C@H](O)[C@@H](O)[C@@H](O)CO [Compound 04, 1-(N-Decyl)-L-arabinonamide]	poorly soluble											SOLUBILITY (H2O): medium named in the cell instead of water [2]: In oil; solubility in diverse oils, in words [2]: soluble; FOAM ([3]; Table E1): −
CCCCCCCCN(C)C(=O)[C@H](O)[C@@H](O)[C@@H](O)CO [Compound 17, N-methyl-N-octyl-L-arabinonamide]	well soluble											SOLUBILITY (H2O) [1, 6]: Soluble; solubility in methanol, in words [2]: well soluble; foaming behaviour / foam creation, in words [3]: good foaming behaviour; FOAM ([3]; Table E3): ++
CCCCCCN(C)C(=O)[C@H](O)[C@@H](O)[C@@H](O)CO [Compound 18, N-methyl-N-hexyl-L-arabinonamide]	well soluble											SOLUBILITY (H2O) [1, 6]: Soluble; solubility in methanol, in words [2]: well soluble; FOAM ([3]; Table E3): −
CCCCCCCCCCCCN(C)C(=O)[C@H](O)[C@@H](O)[C@@H](O)CO [Compound 19, N-methyl-N-dodecyl-L-arabinonamide]	well soluble											SOLUBILITY (H2O) [1, 6]: Soluble; solubility in ethyl acetate, in words ([2]; ethyl acetate): well soluble; solubility in methanol, in words [2]: well soluble; FOAM ([3]; Table E3): ++
CCCCCCN(C)C[C@H](O)[C@@H](O)[C@@H](O)[C@H](O)C(=O)O [Compound 30, N-methyl-N-hexyl-D-galacturonic acid amine]												SOLUBILITY (H2O) ([1]; Table E5): 40%; Solubility [1]: 40%; FOAM ([3]; Table E5, PH > 7): ++; CMC (%) ([4]; Table E5): 2%; SURFACE TENSION [4, 7]: 60.6 mN/m; Surface tension (nM/m) ([4]; Table E5.2): 42.1 mN/m; Foamability (mL) after (min) 1 [5]: 0.2 mL; Foamability (mL) after (min) 5 [5]: 0 mL; Foamability (mL) after (min) 10 [5]: 0 mL
CCCCCCCCCCCCN(C)C[C@H](O)[C@@H](O)[C@@H](O)[C@H](O)C(=O)O [Compound 32, N-methyl-N-dodecyl-D-galacturonic acid amine]												solubility in H2O [1]: 1%; SOLUBILITY (H2O) ([1]; Table E5): 1%; Solubility [1]: 1%; FOAM ([3]; Table E5, pH not given): +++; stability in foam ([3]; whole pH range): enormous stability; SURFACE TENSION [4]: 33.9 mN/m; CMC (%) ([4]; Table E5): 0.1%; SURFACE TENSION [4, 7]: 33.9 mN/m; CMC (%) ([4]; Table E5.2): 0.1%; Surface tension (nM/m) ([4]; Table E5.2): 33.9 mN/m; critical micelle concentration (CMC) ([4]; running text b302): 0.01%; Foamability (mL) after (min) 1 [5]: 4.5 mL; Foamability (mL) after (min) 5 [5]: 5 mL; Foamability (mL) after (min) 10 [5]: 3 mL
CCCCCC[N+](C)([O-])C[C@H](O)[C@@H](O)[C@@H](O)CO (stereo partly drawn) [Compound 38, N-methylhexyl-L-arabinonamine oxide]		19	19	−	1.60	49.275	1.30	53.59	0.5	0	0	
CCCCCCCC[N+](C)([O-])C[C@H](O)[C@@H](O)[C@@H](O)CO (stereo partly drawn) [Compound 39, N-methyloctyl-L-arabinonamine oxide]		11	11	++	0.55	27.734	0.55	27.73	2	2	0.5	
CCCCCC[N+](C)([O-])C[C@H](O)[C@@H](O)[C@@H](O)[C@H](O)C(=O)O (stereo partly drawn) [Compound 41, N-methyl-N-hexyl-D-galacturonic acid amine oxide]		17	17	−	2.58	37.727	2.60	42.90	0.5	0	0	
CCCCCCCC[N+](C)([O-])C[C@H](O)[C@@H](O)[C@@H](O)[C@H](O)C(=O)O (stereo partly drawn) [Compound 42, N-methyl-N-octyl-D-galacturonic acid amine oxide]		10	10	+++	0.65	42.89	0.65	42.89	6	6	2	
CCCCCCCCCC[N+](C)([O-])C[C@H](O)[C@@H](O)[C@@H](O)[C@H](O)C(=O)O (some centres unmarked) [Compound 42b]		8	8	+++	0.08	25.17	0.08	25.17	6	6	5	
CCCCCCCCCCCC[N+](C)([O-])C[C@H](O)[C@@H](O)[C@@H](O)[C@H](O)C(=O)O (stereo partly drawn) [Compound 43, N-methyl-N-dodecyl-D-galacturonic acid amine oxide]		7	7	+++	0.058	25.551	0.058	25.55	5	4	4	
